Legend:
Details in all cases: 72 h
[1] = tested on: HepG2; experiment: drug sensitivity score (DSS) for viability; higher = more toxic; extreme values may be limits of the assay
[2] = tested on: Caco-2; experiment: as above
[3] = tested on: U2OS; experiment: as above
[4] = tested on: Calu-3; experiment: as above
[5] = tested on: Vero E6; experiment: as above
[6] = tested on: HepG2; experiment: cell viability relative to DMSO; higher = less toxic
[7] = tested on: Caco-2; experiment: as above
[8] = tested on: U2OS; experiment: as above
[9] = tested on: Calu-3; experiment: as above
[10] = tested on: Vero E6; experiment: as above
[11] = tested on: HepG2; experiment: relative viability EC50 (midpoint between 100% and the lowest measured viability); higher = less toxic
[12] = tested on: Caco-2; experiment: as above
[13] = tested on: U2OS; experiment: as above
[14] = tested on: Calu-3; experiment: as above
[15] = tested on: Vero E6; experiment: as above

| SMILES | drug sensitivity score [1] | drug sensitivity score [2] | drug sensitivity score [3] | drug sensitivity score [4] | drug sensitivity score [5] | cell viability ([6]; 1 nM) [%] | cell viability ([6]; 10 nM) [%] | cell viability ([6]; 100 nM) [%] | cell viability ([6]; 1000 nM) [%] | cell viability ([6]; 10000 nM) [%] | cell viability ([7]; 1 nM) [%] | cell viability ([7]; 10 nM) [%] | cell viability ([7]; 100 nM) [%] | cell viability ([7]; 1000 nM) [%] | cell viability ([7]; 10000 nM) [%] | cell viability ([8]; 1 nM) [%] | cell viability ([8]; 10 nM) [%] | cell viability ([8]; 100 nM) [%] | cell viability ([8]; 1000 nM) [%] | cell viability ([8]; 10000 nM) [%] | cell viability ([9]; 1 nM) [%] | cell viability ([9]; 10 nM) [%] | cell viability ([9]; 100 nM) [%] | cell viability ([9]; 1000 nM) [%] | cell viability ([9]; 10000 nM) [%] | cell viability ([10]; 1 nM) [%] | cell viability ([10]; 10 nM) [%] | cell viability ([10]; 100 nM) [%] | cell viability ([10]; 1000 nM) [%] | cell viability ([10]; 10000 nM) [%] | relative viability EC50 [11] [µM] | relative viability EC50 [12] [µM] | relative viability EC50 [13] [µM] | relative viability EC50 [14] [µM] | relative viability EC50 [15] [µM] |
| --- | --- | --- | --- | --- | --- | --- | --- | --- | --- | --- | --- | --- | --- | --- | --- | --- | --- | --- | --- | --- | --- | --- | --- | --- | --- | --- | --- | --- | --- | --- | --- | --- | --- | --- | --- |
| NC(=O)c1ccc([N+](=O)[O-])cc1Cl [aklomide] | 0 | 0 | 0 | 0 | 0 | 95.5 | 95.9 | 100 | 91 | 102 | 95.9 | 95.3 | 100 | 92.2 | 98.1 | 107 | 103 | 99.4 | 101 | 103 | 112 | 106 | 112 | 98.9 | 103 | 98.4 | 98.4 | 95.8 | 96.6 | 104 | > 10 | > 10 | > 10 | > 10 | > 10 |
| Oc1ncnc2[nH]ncc12 [allopurinol] | 0 | 0 | 0 | 0 | 0 | 113 | 99.6 | 99.5 | 103 | 91.7 | 91.5 | 97 | 104 | 89.6 | 100 | 100 | 103 | 102 | 99.2 | 101 | 100 | 98 | 90.4 | 98 | 94.1 | 107 | 104 | 92 | 101 | 93.9 | > 10 | > 10 | > 10 | > 10 | > 10 |
| NCC[C@H](O)C(=O)N[C@@H]1C[C@H](N)[C@@H](O[C@H]2O[C@H](CN)[C@@H](O)[C@H](O)[C@H]2O)[C@H](O)[C@H]1O[C@H]1O[C@H](CO)[C@@H](O)[C@H](N)[C@H]1O [amikacin] | 0 | 0 | 0 | 0 | 0 | 101 | 104 | 96.6 | 92.6 | 113 | 95.7 | 103 | 99.5 | 104 | 104 | 97.5 | 98.3 | 98.9 | 103 | 97.9 | 100 | 99.7 | 94.9 | 105 | 91.5 | 94.8 | 98.5 | 96.9 | 94.5 | 103 | > 10 | > 10 | > 10 | > 10 | > 10 |
| Cc1ccc(/N=C/N(C)/C=N/c2ccc(C)cc2C)c(C)c1 [amitraz] | 0 | 0 | 0 | 0 | 0 | 96 | 81.2 | 103 | 87.4 | 92.2 | 94.1 | 99.5 | 91.8 | 104 | 88.1 | 101 | 99.2 | 94.6 | 95.5 | 87.8 | 95.1 | 104 | 98.1 | 105 | 96.1 | 94.8 | 103 | 95.8 | 95.6 | 104 | > 10 | > 10 | > 10 | > 10 | > 10 |
| CC(C)(C#N)c1cc(Cn2cncn2)cc(C(C)(C)C#N)c1 [anastrozole] | 0 | 0 | 0 | 0 | 0 | 89.5 | 94.3 | 96.1 | 97.5 | 96.4 | 89.4 | 101 | 92.9 | 96.9 | 95.8 | 92.7 | 98.3 | 96.3 | 104 | 113 | 97.1 | 98.7 | 93.8 | 116 | 103 | 94 | 99.2 | 97.7 | 99.3 | 107 | > 10 | > 10 | > 10 | > 10 | > 10 |
| COc1ccc(C2C(=O)c3ccccc3C2=O)cc1 [anisindione] | 0 | 0 | 0 | 0 | 0 | 107 | 111 | 105 | 108 | 94.7 | 101 | 93.8 | 100 | 98.3 | 95.3 | 101 | 97.8 | 102 | 106 | 105 | 112 | 106 | 108 | 95.7 | 108 | 95.1 | 92.1 | 94.7 | 89.5 | 105 | > 10 | > 10 | > 10 | > 10 | > 10 |
| O=C1C(=O)N(Cc2ccc(Cl)c(Cl)c2)c2ccccc21 [apoptosis-activator-II] | 0.1 | 0.2 | 4.7 | 0 | 0 | 103 | 98 | 108 | 107 | 84.5 | 91.6 | 104 | 93.3 | 96.7 | 84.5 | 99.2 | 98.9 | 94 | 94.4 | 30.2 | 95.7 | 93 | 103 | 92.6 | 89 | 106 | 102 | 103 | 102 | 87.8 | > 10 | > 10 | 2.5 | > 10 | > 10 |
| CCc1cccc(N(C)C(=N)Nc2cccc3ccccc23)c1 [aptiganel] | 0.1 | 0.7 | 0.1 | 1.4 | 0.1 | 97.6 | 97.2 | 96.1 | 96 | 85.8 | 98.1 | 95.6 | 96.4 | 94.5 | 82 | 101 | 107 | 98.5 | 97.5 | 88.2 | 106 | 105 | 93.2 | 92.5 | 75.1 | 98.2 | 100 | 103 | 96.7 | 88.8 | > 10 | > 10 | > 10 | > 10 | > 10 |
| CCCCN(CCCC)C(=O)CN1C[C@H](c2ccc3c(c2)OCO3)[C@@H](C(=O)O)[C@@H]1c1ccc(OC)cc1 [atrasentan] | 0 | 0 | 0 | 0 | 0 | 106 | 104 | 92.6 | 104 | 97.6 | 101 | 99.8 | 98.3 | 88.3 | 99.3 | 94.4 | 94.4 | 102 | 94.5 | 106 | 98.7 | 94.6 | 114 | 104 | 109 | 104 | 105 | 98.8 | 98.8 | 104 | > 10 | > 10 | > 10 | > 10 | > 10 |
| CC[C@H]1OC(=O)[C@H](C)[C@@H](O[C@H]2C[C@@](C)(OC)[C@@H](O)[C@H](C)O2)[C@H](C)[C@@H](O[C@@H]2O[C@H](C)C[C@H](N(C)C)[C@H]2O)[C@](C)(O)C[C@@H](C)CN(C)[C@H](C)[C@@H](O)[C@]1(C)O [azithromycin] | 0 | 0 | 0 | 0 | 0 | 111 | 105 | 83.5 | 105 | 92 | 89.6 | 104 | 96.7 | 101 | 92.2 | 95.5 | 98.7 | 104 | 96.6 | 98.2 | 96.2 | 94.5 | 104 | 89.8 | 106 | 107 | 103 | 100 | 99.7 | 101 | > 10 | > 10 | > 10 | > 10 | > 10 |
| CC(Cc1cccc(C(F)(F)F)c1)NCCOC(=O)c1ccccc1 (stereo not given) [benfluorex] | 0 | 0 | 0 | 0 | 0 | 86 | 96.6 | 97.8 | 99.4 | 88.4 | 103 | 95.9 | 103 | 107 | 97.6 | 98.8 | 102 | 105 | 96.8 | 100 | 97.8 | 94.5 | 100 | 96.4 | 104 | 101 | 107 | 94.2 | 100 | 96.3 | > 10 | > 10 | > 10 | > 10 | > 10 |
| C=C(c1ccc(C(=O)O)cc1)c1cc2c(cc1C)C(C)(C)CCC2(C)C [bexarotene] | 0 | 0.9 | 0 | 0 | 0 | 94.9 | 96.8 | 107 | 99.7 | 112 | 106 | 90.1 | 95.2 | 86.4 | 86.3 | 94 | 97.9 | 102 | 95 | 92.7 | 92.5 | 95.8 | 102 | 96.7 | 103 | 100 | 102 | 96.6 | 94.3 | 98 | > 10 | > 10 | > 10 | > 10 | > 10 |
| Oc1c(Cl)cc(Cl)cc1Sc1cc(Cl)cc(Cl)c1O [bithionol] | 1.7 | 0.4 | 0 | 0 | 0 | 101 | 89.3 | 93 | 83.1 | 86.3 | 104 | 88.5 | 99 | 86 | 89.2 | 103 | 93.8 | 104 | 98.6 | 104 | 92.6 | 95.7 | 102 | 97.3 | 111 | 97.3 | 107 | 89.9 | 94.8 | 96.4 | > 10 | > 10 | > 10 | > 10 | > 10 |
| Cc1cc2c(OCC(CNC(C)(C)C)OC(=O)c3ccccc3)cccc2[nH]1 (stereo not given) [bopindolol] | 0 | 0 | 0 | 0 | 0 | 94 | 100 | 101 | 96.8 | 95.8 | 93.7 | 102 | 95.4 | 102 | 91.7 | 92.7 | 101 | 93 | 110 | 90.4 | 101 | 102 | 108 | 103 | 92 | 101 | 91.6 | 95.9 | 98.5 | 98.1 | > 10 | > 10 | > 10 | > 10 | > 10 |

Source: the supplement of paper PMC13380429
